Patent US20240025919A1, “AZA-TETRACYCLIC OXAZEPINE COMPOUNDS AND USES THEREOF” (Genentech, Inc., priority 2022, published 2024)
Like-named read-outs stand apart in the source and are kept apart here.

Key:
KRAS G12D = KRAS G12D (Homo sapiens (Human), UniProt P01116, G12D); assay: KRAS G12D LoEnz Biochemical Assay, BODIPY-GDP Exchange TR-FRET (SOS1-mediated nucleotide exchange); conditions: read-out: KRas (G12D) GDP HTRF IC50
Experimental: Example 500: KRAS G12D LoEnz Biochemical Assay, BODIPY-GDP Exchange TR-FRET. Biochemical compound potencies are assessed by evaluating inhibition of SOS1I-mediated nucleotide exchange in KRAS G121D. In this assay, the SOS1-promoted exchange of fluorescently-labeled GDP (BOPIDY-GDP) is monitored by time-resolved fluorescence resonance energy transfer (TR-FRET). Compounds solubilized in DMS0 are dispensed as concentration series into 384-well white assay plates. A preformed complex of biotin-tagged recombinant human KRAS (0.06 nM mutant G1 2D) and 0.06 nM terbium-labeled streptavidin (CisBIO) prepared in 10 uL/well assay buffer (20 mM HEPES, pH 7.5, 50 mM NaCl, 10 mMMMgCl2, 0.0100 Tween-20 and 1 mM dithiothreitol) is added and allowed to incubate for 10-minutes at room temperature. The reaction is initiated with the addition of 5 uL 300 nM recombinant human SOS1 and 300 nM BODIPY-GDP in assay buffer. After a 120-minute incubation, the fluorescence is measured with excitation at 337 nm and emission at 490 and 520 nm. The TR-FRET ratio is determined as the fluorescence at 520 nm divided by the fluorescence at 490 nm multiplied by 10,000. The results are normalized to percent inhibition based on control samples: DMSO (0% inhibition) and control compound at a concentration that inhibits completely (100% inhibition). The normalized TR-FRET results are plotted against compound concentration, and the data are fit to a 4-parameter Hill equation to determine the IC50 values.

KRAS WT = KRAS WT (Homo sapiens (Human), UniProt P01116); assay: KRAS WT Biochemical Assay, BODIPY-GDP Exchange TR-FRET (Example 501; 3 nM KRAS WT, 3 nM SOS1, 60-minute incubation)
KRAS WT, sequence (P01116-2 other isoform, or with tags, fused parts or gaps): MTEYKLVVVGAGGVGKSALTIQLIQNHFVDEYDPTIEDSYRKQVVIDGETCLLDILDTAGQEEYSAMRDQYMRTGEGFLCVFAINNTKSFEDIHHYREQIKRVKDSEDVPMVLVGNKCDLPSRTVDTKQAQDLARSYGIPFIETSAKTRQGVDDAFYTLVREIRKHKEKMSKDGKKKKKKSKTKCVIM
Experimental: Example 501: KRAS WT Biochemical Assay, BODIPY-GDP Exchange TR-FRET. Biochemical compound potencies are assessed by evaluating inhibition of SOS1-mediated nucleotide exchange in KRAS WT. In this assay, the SOS1-promoted exchange of fluorescently-labeled GDP (BOPIDY-GDP) is monitored by time-resolved fluorescence resonance energy transfer (TR-FRET). Compounds solubilized in DMSO are dispensed as concentration series into 384-well white assay plates, and 5 uL assay buffer (20 mM HEPES, pH 7.5, 50 mM NaCl, 10 mM MgCl2, 0.01% Tween-20 and 1 mM dithiothreitol) is added just prior to the start of the assay. A preformed complex of 3 nM biotin-tagged recombinant human KRAS WT and 0.3 nM terbium-labeled streptavidin (CisBIO) prepared in 5 uL/well assay buffer is added and allowed to incubate for 10-minutes at room temperature. The reaction is initiated with the addition of 5 uL 3 nM recombinant human SOS1 and 300 nM BODIPY-GDP in assay buffer. After a 60-minute incubation, the fluorescence is measured with excitation at 337 nm and emission at 490 and 520 nm. The TR-FRET ratio is determined as the fluorescence at 520 nm divided by the fluorescence at 490 nm multiplied by 10,000. The results are normalized to percent inhibition based on control samples: DMSO (0% inhibition) and control compound at a concentration that inhibits completely (100% inhibition). The normalized TR-FRET results are plotted against compound concentration, and the data are fit to a 4-parameter Hill equation to determine the IC50 values.

[1] = read-out: KRas(wt) GDP HTRF IC50

KRAS G12D, sequence (P01116-2 other isoform, or with tags, fused parts or gaps G12D): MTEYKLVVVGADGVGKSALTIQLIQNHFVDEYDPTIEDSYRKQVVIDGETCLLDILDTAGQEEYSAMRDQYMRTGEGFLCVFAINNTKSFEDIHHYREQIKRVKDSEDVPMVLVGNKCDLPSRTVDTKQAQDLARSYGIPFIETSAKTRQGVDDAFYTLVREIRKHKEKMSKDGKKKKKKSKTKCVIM

SMILES | IC50 (KRAS G12D) | IC50 (KRAS WT; [1]) | IC50 (KRAS WT; read-out: KRas HTRF IC50)
Cc1cc(N)c(F)c(-c2nc3c4c(ncnc4c2Cl)N2C[C@H]4CC[C@H](N4)[C@H]2[C@H](C)O3)c1C(F)(F)F (atropisomer, axis not shown) [Compound 95, 3-((5S,5aS,6S,9R)-1-chloro-5-methyl-5a,6,7,8,9,10-hexahydro-5H-4-oxa-3,10a,11,13,14-pentaaza-6,9-methanonaphtho[1,8-ab]heptalen-2-yl)-2-fluoro-5-methyl-4-(trifluoromethyl)aniline] | 26.6 nM |  | 
Cc1cc(N)c(F)c(-c2nc3c4c(nc(OCC56CCN5CC(F)(F)C6)nc4c2F)N2C[C@H]4CC[C@H](N4)[C@H]2[C@H](C)O3)c1C(F)(F)F (mixture of isomers) [Compound 33, 3-((5S,5aS,6S,9R)-12-((3,3-Difluoro-1-azabicyclo[3.2.0]heptan-5-yl)methoxy)-1-fluoro-5-methyl-5a,6,7,8,9,10-hexahydro-5H-4-oxa-3,10a,11,13,14-pentaaza-6,9-methanonaphtho[1,8-ab]heptalen-2-yl)-2-fluoro-5-methyl-4-(trifluoromethyl)aniline] | 0.23 nM | 7.53 nM | 
Cc1c(F)c(N)cc(-c2nc3c4c(nc(OCC56CCN5CC(F)(F)C6)nc4c2F)N2C[C@H]4CC[C@H](N4)[C@H]2[C@H](C(F)(F)F)O3)c1C(F)(F)F (mixture of isomers) [Compound 244, 5-((5R,5aS,6S,9R)-12-((3,3-Difluoro-1-azabicyclo[3.2.0]heptan-5-yl)methoxy)-1-fluoro-5-(trifluoromethyl)-5a,6,7,8,9,10-hexahydro-5H-4-oxa-3,10a,11,13,14-pentaaza-6,9-methanonaphtho[1,8-ab]heptalene-2-yl)-2-fluoro-3-methyl-4-(trifluoromethyl)aniline] | 0.52 nM |  | 11.9 nM
Cc1nc(N)cc(-c2nc3c4c(nc(OCC5(CN6CC7CC(F)(F)C7C6)CC5)nc4c2F)N2C[C@H]4CC[C@H](N4)[C@H]2[C@H](C)O3)c1C(F)(F)F (mixture of isomers) [Compound 264, 4-((5S,5aS,6S,9R)-12-((1-((6,6-difluoro-3-azabicyclo[3.2.0]heptan-3-yl)methyl)cyclopropyl)methoxy)-1-fluoro-5-methyl-5a,6,7,8,9,10-hexahydro-5H-4-oxa-3,10a,11,13,14-pentaaza-6,9-methanonaphtho[1,8-ab]heptalene-2-yl)-6-methyl-5-(trifluoromethyl)pyridin-2-amine] | 0.33 nM |  | 19.2 nM
Cc1c(F)c(N)cc(-c2nc3c4c(nc(OC[C@H]5CC[C@@H]6C(=O)N(C)CCN56)nc4c2F)N2C[C@H]4CC[C@H](N4)[C@H]2[C@H](C)O3)c1C(F)(F)F (relative stereo) [Compound 123, 6-((((5S,5aS,6S,9R)-2-(5-Amino-4-fluoro-3-methyl-2-(trifluoromethyl)phenyl)-1-fluoro-5-methyl-5a,6,7,8,9,10-hexahydro-5H-4-oxa-3,10a,11,13,14-pentaaza-6,9-methanonaphtho[1,8-ab]heptalen-12-yl)oxy)methyl)-2-methylhexahydropyrrolo[1,2-a]pyrazin-1(2H)-one] | 0.7 nM |  | 
C[C@@H]1Oc2nc(-c3cc(N)cc(F)c3C(F)(F)F)c(F)c3nc(OC[C@H]4CC[C@@H]5COC(C)(C)CN45)nc(c23)N2C[C@H]3CC[C@H](N3)[C@@H]12 (relative stereo) [Compound 125, 3-((5S,5aS,6S,9R)-12-((3,3-dimethylhexahydro-1H-pyrrolo[2,1-c][1,4]oxazin-6-yl)methoxy)-1-fluoro-5-methyl-5a,6,7,8,9,10-hexahydro-5H-4-oxa-3,10a,11,13,14-pentaaza-6,9-methanonaphtho[1,8-ab]heptalen-2-yl)-5-fluoro-4-(trifluoromethyl)aniline] | 0.23 nM |  | 
Cc1c(F)c(N)cc(-c2nc3c4c(nc(OC[C@@]56CCCN5C[C@H](F)C6)nc4c2F)N2CCNC[C@H]2[C@H](C)O3)c1C(F)(F)F (single isomer, unassigned) [235 (isomer 1)] | 65.8 nM |  | 143 nM
Cc1c(F)c(N)cc(-c2nc3c4c(nc(OC[C@@]56CCCN5C[C@H](F)C6)nc4c2F)N2CCNC[C@H]2C(C)O3)c1C(F)(F)F (single isomer, unassigned) [235 (isomer 2)] | 0.48 nM |  | 2.63 nM
Cc1c(F)c(N)cc(-c2nc3c4c(nc(OC[C@@]56CCCN5C[C@H](F)C6)nc4c2F)N2C[C@H]4CC[C@H](N4)[C@@H]2[C@H](C)O3)c1C(F)(F)F (single isomer, unassigned) [237 (isomer 1)] | 1910 nM |  | 1020 nM
Cc1nc(N)cc(-c2nc3c4c(nc(OC[C@@]56CCN5CC(F)(F)C6)nc4c2F)N2C[C@H]4CC[C@H](N4)[C@H]2[C@H](C(F)(F)F)O3)c1C(F)(F)F (single isomer, unassigned) [252 (isomer 1)] | 1.17 nM |  | 25 nM
C#Cc1cccc2cc(O)cc(-c3nc4c5c(nc(OC[C@]67CCN6CC(F)(F)C7)nc5c3F)N3C[C@H]5CC[C@H](N5)[C@H]3[C@H](C)O4)c12 (single isomer, unassigned) [Compound 19] | 0.08 nM | 1.83 nM | 
C#Cc1cccc2cc(O)cc(-c3nc4c5c(nc(OC[C@@]67CCN6CC(F)(F)C7)nc5c3F)N3C[C@H]5CC[C@H](N5)[C@H]3[C@H](C)O4)c12 (single isomer, unassigned) [Compound 20] | 0.12 nM | 6.55 nM | 
Cc1c(Cl)c(N)cc(-c2nc3c4c(nc(OC[C@@]56CCCN5C[C@H](F)C6)nc4c2F)N2C[C@H]4CC[C@H](N4)[C@H]2[C@H](C)O3)c1C(F)(F)F (single isomer, unassigned) [Compound 200] | 0.1 nM |  | 
Cc1cc(N)c(Cl)c(-c2nc3c4c(nc(OC[C@@]56CCCN5C[C@H](F)C6)nc4c2F)N2C[C@H]4CC[C@H](N4)[C@H]2[C@H](C)O3)c1C(F)(F)F [Compound 199, 2-Chloro-3-((5S,5aS,6S,9R)-1-fluoro-12-(((2R,7aS)-2-fluorotetrahydro-1H-pyrrolizin-7a(5H)-yl)methoxy)-5-methyl-5a,6,7,8,9,10-hexahydro-5H-4-oxa-3,10a,11,13,14-pentaaza-6,9-methanonaphtho[1,8-ab]heptalen-2-yl)-5-methyl-4-(trifluoromethyl)aniline] | 0.17 nM |  | 
Cc1c(F)c(N)cc(-c2nc3c4c(nc(OC[C@@]56CCCN5C[C@H](F)C6)nc4c2F)N2C[C@H]4CC[C@H](N4)[C@H]2[C@@H](C(F)(F)F)O3)c1C(F)(F)F [Compound 246, 2-Fluoro-5-((5S,5aS,6S,9R)-1-fluoro-12-(((2R,7aS)-2-fluorotetrahydro-1H-pyrrolizin-7a(5H)-yl)methoxy)-5-(trifluoromethyl)-5a,6,7,8,9,10-hexahydro-5H-oxa-3,10a,11,13,14-pentaaza-6,9-methanonaphtho[1,8-ab]heptalene-2-yl)-3-methyl-4-(trifluoromethyl)aniline] |  |  | 1200 nM
Cc1nc(N)cc(-c2nc3c4c(nc(OCC5(CN6CC7COCC(C6)C7(F)F)CC5)nc4c2F)N2C[C@H]4CC[C@H](N4)[C@H]2[C@H](C)O3)c1C(F)(F)F [Compound 266, 4-((5S,5aS,6S,9R)-12-((1-((9,9-difluoro-3-oxa-7-azabicyclo[3.3.1]nonon-7-yl)methyl)cyclopropyl)methoxy)-1-fluoro-5-methyl-5a,6,7,8,9,10-hexahydro-5H-4-oxa-3,10a,11,13,14-pentaaza-6,9-methanonaphtho[1,8-ab]heptalene-2-yl)-6-methyl-5-(trifluoromethyl)pyridin-2-amine] |  |  | 1100 nM
